Columns and labels:
[1] = tested on: Ca2+ oscillations in somatosensory cortex slices; assay: Mitochondrial Ca2+ oscillations (bioluminescence) in organotypic cortical slices from mtGA transgenic mice; format: cell-based, mouse; details: D-APV 50 μM; slices from P4 mtGA mice, 4-5 days in culture
cortical neurons = assay: Single-cell Ca2+ induced bioluminescence in cortical neurons transfected with GA; format: cell-based; details: GA reconstituted with h coelenterazine
Method: Cultures were plated on to glass-bottomed dishes and mounted to a stage adapter on a fully automated inverted microscope mounted in a black-box. GFP-Aequorin was reconstituted with 2.5-5 μM coelenterazine for 30 minutes at 37° C. Incubation of cells with coelenterazine that had been transfected with SynGA was undertaken at room temperature to reduce the consumption of the photoprotein during the reconstitution process. Cells were perfused with tyrodes buffer. Prior to bath application of NMDA, cells were perfused for 1 minute without Mg^2+. All recordings were made at room temperature (22-25° C.). […]
The fluorescence/bioluminescence wide field microscopy system was custom built by ScienceWares, Inc. The system includes a fully automated inverted microscope (200M, Zeiss Germany) and is housed in a light-tight dark box. […] Low level light emission (photon rate <100 kHz), was collected using an Image Photon Detector (IPD 3, Photek Ltd.) connected to the baseport of the microscope, which assigns an X, Y coordinate and time point for each detected photon (Miller et al., 1994). The system is fully controlled by the data acquisition software, which also converts single photon events into an image that can be superimposed with brightfield or fluorescence images made by a connected CCD camera to the C-port (Coolsnap HQ, Roper Scientific). […]

In the case of N[C@H](CCCP(=O)(O)O)C(=O)O [D-APV], the “block of Ca2+ oscillations generated by removal of Mg2+ from the buffer” value [1] was “completely and reversibly blocked”.
[Cl-].[K+] [KCl] was tested, and the “Ca2+ induced bioluminescence signal after stimulation” value (cortical neurons; KCl 90 mM) was “robust signal”.
With CN[C@H](CC(=O)O)C(=O)O [NMDA] the “Ca2+ induced bioluminescence signal after stimulation” value (cortical neurons; NMDA 100 μM) was “robust signal”.

From patent US8263821B2, “Non-invasive real-time in vivo bioluminescence imaging of local CaÂ2+ dynamics in living organisms” (priority 2004, dated 2012)
